Broadly, the IC50 is the midpoint of a concentration-inhibition curve. A high value points to a need for much substance.

A short description of data set [1]: PET scans of bone tracers in young healthy rats. It counts as in vivo, Wistar rats. Here is the method: The tracer NOTA.QS.PAM according to the invention and the clinically established reference tracer DOTA^Zol were labeled with ^68Ga, injected into young healthy Wistar rats, followed by recording of PET scans at intervals of 5 min, 60 min and 120 min after injection.
Both tracers are characterized by renal excretion and low retention in the remaining tissue.

Data set [2] deals with LNCaP tumor. Particulars: NMRI nu/nu nude, mouse, in vivo.
The subject of data set [3] is LNCap cells. The experiment in a line: In vitro IC50 of unlabeled compounds with LNCap cells. In kind it is cell-based. An excerpt:
Further compounds according to the invention are those of the DATA.QS.PSMA type, the structure of which corresponds to the other compounds listed, with the DATA chelator enabling simpler and milder labeling. In the synthesis shown in FIG. 37, a yield of about 70% is achieved. In the case of radioactive labeling with ^68Ga, a yield of more than 95% is achieved (FIG. 38).

Data set [4] has as its target T1, PREP (Homo sapiens, UniProt P48147).
T1 sequence (P48147 1-710): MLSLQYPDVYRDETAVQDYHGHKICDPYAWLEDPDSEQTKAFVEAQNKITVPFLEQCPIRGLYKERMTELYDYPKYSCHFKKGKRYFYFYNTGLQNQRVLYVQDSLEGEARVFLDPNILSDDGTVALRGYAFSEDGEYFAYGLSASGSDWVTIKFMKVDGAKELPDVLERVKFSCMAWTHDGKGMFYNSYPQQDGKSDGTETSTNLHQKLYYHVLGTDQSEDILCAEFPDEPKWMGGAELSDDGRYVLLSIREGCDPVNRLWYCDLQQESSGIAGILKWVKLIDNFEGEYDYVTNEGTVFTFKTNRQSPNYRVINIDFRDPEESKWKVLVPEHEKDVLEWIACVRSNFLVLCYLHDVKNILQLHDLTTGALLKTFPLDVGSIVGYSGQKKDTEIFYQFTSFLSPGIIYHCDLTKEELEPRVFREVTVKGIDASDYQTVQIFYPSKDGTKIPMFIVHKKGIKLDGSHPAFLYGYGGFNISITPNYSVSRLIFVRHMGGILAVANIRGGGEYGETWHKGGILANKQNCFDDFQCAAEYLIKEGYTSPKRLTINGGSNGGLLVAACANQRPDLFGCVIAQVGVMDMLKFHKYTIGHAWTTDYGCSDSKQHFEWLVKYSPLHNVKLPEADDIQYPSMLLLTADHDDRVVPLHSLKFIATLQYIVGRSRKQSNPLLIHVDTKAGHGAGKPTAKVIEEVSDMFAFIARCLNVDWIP
The data set can be described thus: PREP IC50 using N-succinyl-Gly-Pro-AMC. It counts as biochemical. The note with it: substrate N-succinyl-Gly-Pro-AMC. Here is the method: (§1) The FAP IC50 values were measured using Z-Gly-Pro-7-amino-4-methylcoumarin (AMC). The PREP IC50 values were determined using N-succinyl-Gly-Pro-AMC.

The target of data set [5] is T2, FAP (Homo sapiens, UniProt Q12884).
T2 sequence (Q12884 1-760): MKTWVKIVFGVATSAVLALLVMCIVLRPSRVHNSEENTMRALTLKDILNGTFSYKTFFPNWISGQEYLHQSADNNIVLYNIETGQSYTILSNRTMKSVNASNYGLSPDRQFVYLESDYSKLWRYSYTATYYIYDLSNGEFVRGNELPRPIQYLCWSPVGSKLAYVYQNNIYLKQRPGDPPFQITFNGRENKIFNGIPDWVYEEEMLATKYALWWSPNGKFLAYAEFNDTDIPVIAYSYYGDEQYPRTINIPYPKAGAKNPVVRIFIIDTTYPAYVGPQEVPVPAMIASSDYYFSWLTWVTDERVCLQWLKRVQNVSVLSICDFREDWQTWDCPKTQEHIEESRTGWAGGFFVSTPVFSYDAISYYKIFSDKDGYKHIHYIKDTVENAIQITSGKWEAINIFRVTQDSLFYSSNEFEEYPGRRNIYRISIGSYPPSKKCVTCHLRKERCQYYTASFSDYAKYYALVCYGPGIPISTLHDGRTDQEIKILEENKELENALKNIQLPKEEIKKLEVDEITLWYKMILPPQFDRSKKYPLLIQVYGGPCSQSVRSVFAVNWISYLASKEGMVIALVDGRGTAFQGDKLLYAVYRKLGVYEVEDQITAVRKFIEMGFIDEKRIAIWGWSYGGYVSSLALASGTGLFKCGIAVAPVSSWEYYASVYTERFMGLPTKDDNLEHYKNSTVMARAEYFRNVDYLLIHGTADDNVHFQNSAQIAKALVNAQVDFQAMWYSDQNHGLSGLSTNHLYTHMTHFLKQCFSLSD
The data set can be described thus: FAP IC50 using Z-Gly-Pro-7-amino-4-methylcoumarin (AMC). The note with it: for Selectivity index (FAP/PREP): from IC50 FAP and IC50 PREP; for IC50: substrate Z-Gly-Pro-AMC. In kind it is biochemical. Here is the method:
as §1

Data set [6] deals with LNCaP tumor. The experiment in a line: PET preclinical comparative tests of PSMA radiotracers (SUV). Particulars: 68Ga-labeled tracer; for SUV Nieren: kidneys (Nieren); for SUV Leber: liver (Leber).
Data set [7] relates to LNCaP tumor. The experiment in a line: Biological distribution by extraction of organs (ex vivo), PSMA tracers. In kind it is in vivo, NMRInu/nu nude mice. Particulars: for tumor activity (biological distribution): compared with 68Ga-PSMA-11 and 68Ga-PSMA-617. An excerpt:
In addition, PET was used to carry out preclinical ex vivo tests with the radiotracers of type [^68Ga]Ga-DOTA.QS.PSMA, [^68Ga]Ga-PSMA-11 and [^68Ga] Ga-PSMA-617 on NMRInu/nu nude mice with an LNCap tumor. […] The results obtained underline those obtained in the in vivo tests.

The subject of data set [8] is tumor tissue. The experiment in a line: In vivo and ex vivo investigation of TRAP.QS.PSMA radiotracer. Particulars: ex vivo, compared to [68Ga]Ga-PSMA-11. Here is the method: FIG. 31a-b, 32-36 show the synthesis and measurement results for radiolabeling, stability and in vivo investigations of the radiotracer [^68Ga]Ga-TRAP.QS.PSMA. […] The in vivo studies were carried out with ^68Ga and ^64Cu. From the images it can be seen that, compared to Examples 8 and 10, the accumulation in the kidneys is […] for both radiotracers.

In data set [9] the test system is tumor. The experiment in a line: Ex vivo activities of 68Ga-DATA.QS.PSMA and 68Ga-PSMA-11. It counts as in vivo. The note with it: ± SD. An excerpt: The results of ex vivo investigations (FIGS. 41-43) are in agreement with the in vivo observations.

The structures appear in SMILES notation. Values joined by “and” are separate entries in the source; they are usually repeats but may differ in a detail not shown here. Equal entries are not always repeated. Where two headings read alike, the source gives them in different places.

Compound `O=C(O)CN1CCN(CC(=O)O)CCN(CC(=O)NCCc2cncn2CC(O)(P(=O)(O)O)P(=O)(O)O)CCN(CC(=O)O)CC1.[68Ga+3]` [^68Ga-DOTA^Zol, reference compound] had an SUV femur in data set [1] (68Ga-labeled, organ distribution, femur) of 3.7±0.4.

For `O=C(O)CC[C@H](NC(=O)N[C@@H](CCCCNC(=O)[C@H](Cc1ccc2ccccc2c1)NC(=O)[C@H]1CC[C@H](CNC(=O)CN2CCN(CC(=O)O)CCN(CC(=O)O)CCN(CC(=O)O)CC2)CC1)C(=O)O)C(=O)O` [PSMA-617], in data set [2], the “SUV Leber” value is reported as 0.29, the “SUV Nieren” value is 0.27 and the “SUV Tumor” value came to 0.73. This compound registered an IC50 in data set [3] (Homo sapiens) of 15.1 nM.

Take `CN(CC(=O)O)C1(CCCCC(=O)NCCNc2c(NCCCCOc3ccc4nccc(C(=O)NCC(=O)N5CC(F)(F)C[C@H]5C#N)c4c3)c(=O)c2=O)CN(CC(=O)O)CCN(CC(=O)O)C1` [DATA^5m.QS.FAPi - uncomplexed]: the IC50 in data set [4] came to 1690 ± 90 nM. Also, in data set [5], the “Selectivity index (FAP/PREP)” value was determined as 2113 and the IC50 worked out at 0.8 ± 0.2 nM.

`O=C(O)CCc1ccc(O)c(CN(CCN(CC(=O)O)Cc2cc(CCC(=O)NCCCCCC(=O)NCCCC[C@H](NC(=O)N[C@@H](CCC(=O)O)C(=O)O)C(=O)O)ccc2O)CC(=O)O)c1` [PSMA-11, reference compound]: in [6], the “SUV Nieren” value came to 4.71, the “SUV Leber” value is 0.25 and the “SUV Tumor” value worked out at 1.16.

`CN(CC(=O)O)C1(CCCCC(=O)NCCNc2c(NCCCCC(NC(=O)NC(CCC(=O)O)C(=O)O)C(=O)O)c(=O)c2=O)CN(CC(=O)O)CCN(CC(=O)O)C1` (stereo not drawn) [DATA.QS.PSMA]: in data set [3], the IC50 is 51.5 nM and 51.1 nM.

On to `O=C(O)CCC(NC(=O)NC(CCCCNc1c(NCCNC(=O)CCC(C(=O)O)N2CCN(CC(=O)O)CCN(CC(=O)O)CCN(CC(=O)O)CC2)c(=O)c1=O)C(=O)O)C(=O)O.[68Ga+3]` (stereo not drawn) [^68Ga-DOTA.QS.PSMA], for which, in data set [7] (compared with 68Ga-PSMA-11), the “off-target activity in the kidneys” value is “significantly lower”. Moreover, the entries for the “tumor activity (biological distribution)” value in data set [7] and in data set [7] (listed as [^68Ga]Ga-DOTA.QS.PSMA) were “slightly lower or equal” and “slightly lower or the same”, respectively. Also, the “SUV Tumor” value in data set [6] amounted to 0.73.

Turning to `O=C(O)CCC(NC(=O)NC(CCCCNc1c(NCCCOCCOCCOCCCNC(=O)CCP(=O)(O)CN2CCN(CP(=O)(O)CCC(=O)NCCCOCCOCCOCCCNc3c(NCCCCC(NC(=O)NC(CCC(=O)O)C(=O)O)C(=O)O)c(=O)c3=O)CCN(CP(=O)(O)CCC(=O)NCCCOCCOCCOCCCNc3c(NCCCCC(NC(=O)NC(CCC(=O)O)C(=O)O)C(=O)O)c(=O)c3=O)CC2)c(=O)c1=O)C(=O)O)C(=O)O.[68Ga+3]` (stereo not drawn) [[^68Ga]Ga-TRAP.QS.PSMA], in data set [8], the “accumulation in the kidneys” value was “noticeably decreased” and the “accumulation in tumor tissue” value was “elevated”.

For the compound `N#C[C@@H]1CC(F)(F)CN1C(=O)CNC(=O)c1ccnc2ccc(OCCCCNc3c(NCCNC(=O)CN4CCN(CC(=O)O)CCN(CC(=O)O)CCN(CC(=O)O)CC4)c(=O)c3=O)cc12` [DOTA.QS.FAPi - uncomplexed], the IC50 amounted to 5400 ± 300 nM in [4] and 0.9 ± 0.1 nM in [5]. Moreover, in data set [5], the “Selectivity index (FAP/PREP)” value is 6000.

Turning to `O=C([O-])CN(CCN(CC(=O)[O-])Cc1cc(CCC(=O)NCCCCCC(=O)NCCCC[C@H](NC(=O)N[C@@H](CCC(=O)O)C(=O)O)C(=O)O)ccc1[O-])Cc1cc(CCC(=O)O)ccc1[O-].[68Ga+3].[OH3+]` [^68Ga.PSMA 11, reference compound], the “Ex vivo activity LN” value in [9] (LN) worked out at 0.66 ± 0.10 % ID/g. The “Ex vivo activity blood” value in [9] (blood) was 0.27 ± 0.03 % ID/g. In addition, in [9] (bone), the “Ex vivo activity bone” value was 0.15 ± 0.04 % ID/g. Further, the “Ex vivo activity heart” value in data set [9] (heart) was 0.17 ± 0.03 % ID/g. Also, the “Ex vivo activity kidney left” value in data set [9] (kidney left) was determined as 36.66 ± 5.05 % ID/g. Also, the “Ex vivo activity kidney right” value in data set [9] (kidney right) stood at 36.72 ± 4.33 % ID/g. Moreover, the “Ex vivo activity liver” value in [9] (liver) turned out to be 0.23 ± 0.04 % ID/g. In data set [9] (lung), the “Ex vivo activity lung” value came out at 0.74 ± 0.04 % ID/g. In addition, the “Ex vivo activity muscle” value in data set [9] (muscle) worked out at 0.11 ± 0.03 % ID/g. In data set [9] (salivary glands), the “Ex vivo activity salivary glands” value was determined as 0.54 ± 0.11 % ID/g. For the same compound, in data set [9] (small intestine), the “Ex vivo activity small intestine” value is listed as 0.50 ± 0.14 % ID/g. For the same compound, the “Ex vivo activity spleen” value in data set [9] (spleen) is recorded as 3.12 ± 0.39 % ID/g. The “Ex vivo activity tumor” value in data set [9] (tumor) came out at 5.51 ± 0.38 % ID/g.

In turn, `CN(CC(=O)O)C1(CCCCC(=O)NCCNc2c(NCCCCOc3ccc4nccc(C(=O)NCC(=O)N5CC(F)(F)C[C@H]5C#N)c4c3)c(=O)c2=O)CN(CC(=O)O)CCN(CC(=O)O)C1.[Ga+3]` [DATA5m.QS.FAPi - natGa] yielded a 50% inhibitory concentration (IC50) in data set [4] of 4700 ± 300 nM. Also, in data set [5], the “Selectivity index (FAP/PREP)” value worked out at 6714 and the IC50 stood at 0.7 ± 0.1 nM.

`O=C(O)CCC(NC(=O)NC(CCCCNc1c(NCCNC(=O)CCC(C(=O)O)N2CCN(CC(=O)O)CCN(CC(=O)O)CCN(CC(=O)O)CC2)c(=O)c1=O)C(=O)O)C(=O)O` (stereo not drawn) [DOTA.QS.PSMA]: in data set [6], the “SUV Nieren” value came out at 0.43, the “SUV Leber” value is given as 0.27 and the “SUV Tumor” value was determined as 0.73.

As to `O=C(O)CN1CCN(CC(=O)O)CCN(C(CCC(=O)NCCNc2c(NCCC(O)(P(=O)(O)O)P(=O)(O)O)c(=O)c2=O)C(=O)O)CC1.[68Ga+3]` (stereo not drawn) [^68Ga-NOTA.QS.PAM], in data set [1] (rat, in vivo), the SUV femur was 4.5±0.2 and the renal excretion entry is “slightly reduced”.

(Values after patent US11833229B2, “Labeling precursors with squaric acid coupling” (SCV—SpezialChemikalienVertrieb GmbH, priority 2019, dated 2023).)
